pEC50, pIC50, pKi: −log10 of the molar value.
Tests used:
[1] = tested on: Hsp90 client proteins (Akt1, ERK1) in MDA-MB-231 cell line; test: Cellular biomarker assays (Akt1, ERK1 ELISA) in MDA-MB-231; assay type: cell-based; settings: 48 hours
Experimental: (§1) Cellular biomarker assays: Cells were cultured in culture medium (RPMI-glutamax, 10% FCS, 100 units/ml penicillin, and 100 μg/ml streptomycin). Cells were passaged after lifting using 0.25% trypsin/EDTA, and 3×10^5 cells were seeded in each well of six well plates (total volume 2.5 mL/well). After the cells were cultured for 24 hours, increasing concentrations of Hsp90 inhibitor were added to wells in triplicate from DMSO-containing stock solutions and mixed by gently by stirring. Final DMSO concentration in all wells was 0.25%. The treated cells were then cultured for 48 hours prior to lysate preparation. The culture media was removed from wells, and the wells were washed twice with DPBS containing 1 mM CaCl2 and 0.5 mM MgCl2. […] The protein concentration in the cell lysates was determined using the BCA protein assay kit used according to the manufacturer's recommendations. […] Protein concentrations were determined using a micro-titer plate reader (Model # Synergy HT; BioTek Inc., Winooski, Vt.).
(§2) Akt1 and ERK1 levels in the cell lysates were measured using kits from R&D Systems used according to the manufacturer's recommendations. […] Akt1 and ERK1 levels were determined using a micro-titer plate reader (Model # Synergy HT; BioTek Inc., Winooski, Vt.) (FIGS. 5 and 8).

GBM39 = test: Cellular efficacy in Mayo Clinic GBM PDX cell line GBM39; assay type: cell-based
Experimental: (§3) Short-term explant cultures from PDX models were seeded into 96-well Perfecta3D hanging drop plates to form a single spheroid in each well after 2 days. The spheroids were transferred to a round bottom 96 well plate by centrifugation and then incubated with graded concentrations of test compound (8 spheroids per compound concentration). Spheroid volumes were monitored every 6 hours over the course of 5 days using the IncuCyte system (Essen BioScience, MI, US) to provide a growth curve akin to a tumor regrowth assay.

[2] = tested on: Hsp90 client proteins (EGFR and Akt1) in Mayo Clinic GBM PDX cell lines; test: Cellular biomarker assays (EGFR, Akt1 ELISA) in Mayo Clinic GBM PDX cell lines; assay type: cell-based; settings: 48 hours; three cell lines
[3] = tested on: Hsp90 client proteins (Akt1, ERK1) in HEI193; test: Cellular biomarker assays (Akt1, ERK1 ELISA) in HEI193; assay type: cell-based, human; settings: 48 hour treatment
Experimental: as §1, §2

TRAP1 = target: T1, TRAP1 (Homo sapiens, UniProt Q12931); test: Fluorescence polarization (FP) displacement assay, GA-FITC, TRAP1; assay type: binding; settings: FP displacement of GA-FITC, 200 nM TRAP1; for pKi: NA: Not active, read-out: Biochemical efficacy TRAP1 Ki; for pIC50: read-out: Biochemical efficacy TRAP1 IC50
T1 construct: Recombinant full-length human Hsp90 and 459 TRAP1 were cloned; 6His (TEV-cleavable) (N); made in house; host or cells: E. coli BL21 (DE3)
T1 sequence (Q12931 60-704): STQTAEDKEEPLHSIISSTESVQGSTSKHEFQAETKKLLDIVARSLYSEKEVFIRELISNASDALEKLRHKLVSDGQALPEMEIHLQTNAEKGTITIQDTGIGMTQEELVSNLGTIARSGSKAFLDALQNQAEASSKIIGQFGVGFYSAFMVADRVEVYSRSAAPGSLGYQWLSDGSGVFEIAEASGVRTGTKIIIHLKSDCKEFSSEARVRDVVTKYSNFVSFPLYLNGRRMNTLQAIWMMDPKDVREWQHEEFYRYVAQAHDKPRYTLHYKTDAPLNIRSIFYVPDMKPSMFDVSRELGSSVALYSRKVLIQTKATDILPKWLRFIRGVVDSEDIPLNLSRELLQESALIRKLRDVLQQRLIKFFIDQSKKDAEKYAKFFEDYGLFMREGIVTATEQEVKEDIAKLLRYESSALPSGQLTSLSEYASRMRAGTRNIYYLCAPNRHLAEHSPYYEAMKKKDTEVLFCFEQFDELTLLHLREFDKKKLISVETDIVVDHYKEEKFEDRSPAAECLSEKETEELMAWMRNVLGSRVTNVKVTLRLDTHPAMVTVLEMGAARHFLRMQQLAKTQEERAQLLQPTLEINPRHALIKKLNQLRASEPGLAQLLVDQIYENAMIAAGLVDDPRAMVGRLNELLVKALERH
Experimental: (§4) Prior to transforming into BL21 (DE3) all the cloned vectors were sequence confirmed. Expressed proteins were purified using NTA resin (Life Technologies) followed by size exclusion chromatography using FPLC. The molecular mass of the purified proteins was confirmed by MALDI-TOF and assessed for purity by SDS-PAGE.
(§5) The assay conditions were 20 mM HEPES, pH-7.5, 50 mM KCl, 5 mM MgCl2, 20 mM sodium molybdate, 2 mM DTT, 0.01% NP40, 100 ug/ml BSA, 50 nM Hsp90 or 200 nM TRAP1, 1% DMSO, and 8 nM (for Hsp90) or 20 nM (for TRAP1) GA-FITC in the presence of increasing concentrations of test compound.

human Hsp90 = test: Fluorescence polarization (FP) displacement assay, GA-FITC, Hsp90; assay type: binding; settings: FP displacement of GA-FITC, 50 nM Hsp90; for pIC50: read-out: Biochemical efficacy HSP90 IC50; for pKi: read-out: Biochemical efficacy HSP90 Ki
Experimental: as §4, §5

GBM10 = test: Cellular efficacy in Mayo Clinic GBM PDX cell line GBM10; assay type: cell-based
Experimental: as §3

GBM43 = test: Cellular efficacy in Mayo Clinic GBM PDX cell line GBM43; assay type: cell-based
Experimental: as §3

[4] = tested on: Mayo Clinic patient derived GBM tumor cells; test: Mayo Clinic patient derived GBM tumor cell proliferation; assay type: cell-based; settings: 132 hours
Experimental: as §3

HEI193 cells = test: TMRE assay, HEI193 cell mitochondrial integrity; assay type: cell-based, human; settings: observed as early as 2 hours after treatment
Experimental: Mitochondrial integrity was evaluated using Tetramethylrhodamine ethyl ester (TMRE) assay. A TMRE assay kit (Abcam) was used to evaluate Hsp90/TRAP1 inhibitor-induced changes in mitochondrial membrane potential. […] TMRE (200 nM) was then added to wells for 30 min and monitored for changes in fluorescence activity using a fluorescence plate reader (ex544/em 590) after washing the cells. Specific TMRE fluorescence was calculated by comparison to matched wells pretreated with the depolarizing proton ionophore carbonyl cyanide 4-(trifluoromethoxy)phenylhydrazone (FCCP) at 20 uM 10 min prior to addition of TMRE. For mitochondria assays, mitochondria was isolated using a kit from Thermoscientific and loaded with 0.1 mM TMRE. TMRE-loaded mitochondria (2 μg per well) were incubated with test compounds and monitored kinetically at 30° C. for changes in fluorescence using a flurorescence plate reader (ex 544/em 590) (FIGS. 6A, 9A and 12).

| SMILES | pEC50 (GBM39) | pKi (TRAP1) | pIC50 (TRAP1) | pIC50 (human Hsp90) | pKi (human Hsp90) | pEC50 (GBM10) | pEC50 (GBM43) | Effect on Akt1 and ERK1 levels, MDA-MB-231 [1] | Effect on EGFR and Akt1 levels, GBM PDX cell lines [2] | Effect on Akt1 and ERK1 levels, HEI193 [3] | Effect on patient derived GBM tumor cell proliferation [4] | Effect on TMRE fluorescence in HEI193 cells (HEI193 cells) |
| --- | --- | --- | --- | --- | --- | --- | --- | --- | --- | --- | --- | --- |
| COc1c(C)cnc(CN(CC2(c3ccccn3)CCOCC2)c2cc(Cl)nc(N)n2)c1C [Compound E, 6-chloro-4-N-[(4-methoxy-3,5-dimethylpyridin-2-yl)methyl]-4-N-{[4-(pyridin-2-yl)oxan-4-yl]methyl}pyrimidine-2,4-diamine] | – | 6.86 | 5.96 | 7.02 | 7.62 | – | – | – | – | – | – | – |
| CC(C)c1cc(-c2n[nH]c(=O)n2-c2ccc3c(ccn3C)c2)c(O)cc1O [Ganetespib, reference compound] | – | – | – | – | – | – | – | – | – | – | – | significantly weaker response |

Second part, led by results:

| pEC50 (GBM39) | pKi (TRAP1) | pIC50 (TRAP1) | pIC50 (human Hsp90) | pKi (human Hsp90) | pEC50 (GBM10) | pEC50 (GBM43) | SMILES | Effect on Akt1 and ERK1 levels, MDA-MB-231 [1] | Effect on EGFR and Akt1 levels, GBM PDX cell lines [2] | Effect on Akt1 and ERK1 levels, HEI193 [3] | Effect on patient derived GBM tumor cell proliferation [4] | Effect on TMRE fluorescence in HEI193 cells (HEI193 cells) |
| --- | --- | --- | --- | --- | --- | --- | --- | --- | --- | --- | --- | --- |
| 6.21 | 7.96 | 7.07 | 7.48 | 8.10 | 5.92 | 6.06 | Cc1cnc(CN(CC2(c3ccc(F)cc3)CCOCC2)c2cc(Cl)nc(N)n2)c(C)c1Cl [Compound B, 6-chloro-4-N-[(4-chloro-3,5-dimethylpyridin-2-yl)methyl]-4-N-{[4-(4-fluorophenyl)oxan-4-yl]methyl}pyrimidine-2,4-diamine] | suppression of Hsp90 client proteins | suppression of Hsp90 client proteins | reduction of Hsp90 client proteins | inhibit | – |
| – | – | < 5.40 | 7.06 | 7.66 | – | – | COc1ccnc(CN(CC2(c3ccc(F)cc3)CCOCC2)c2cc(Cl)nc(N)n2)c1C [Compound C, 6-chloro-4-N-{[4-(4-fluorophenyl)oxan-4-yl]methyl}-4-N-[(4-methoxy-3-methylpyridin-2-yl)methyl]pyrimidine-2,4-diamine] | – | – | – | – | – |
| – | 7.17 | 6.27 | 7.27 | 7.85 | – | – | COc1c(C)cnc(CN(CC2(c3cccc(C)n3)CCOCC2)c2cc(Cl)nc(N)n2)c1C [Compound D, 6-chloro-4-N-[(4-methoxy-3,5-dimethylpyridin-2-yl)methyl]-4-N-{[4-(6-methylpyridin-2-yl)oxan-4-yl]methyl}pyrimidine-2,4-diamine] | – | – | – | – | – |

Source: patent US10189824B2, “Pyrimidine-diamine dual HSP90/TRAP1 inhibitors” (CalAsia Pharmaceuticals, Inc., priority 2014, dated 2019)
